Results on one compound are retold here after PMC8591608, “DNDI-6148: A Novel Benzoxaborole Preclinical Candidate for the Treatment of Visceral Leishmaniasis” (Journal of Medicinal Chemistry, 2021).

Converted amounts (≈) assume the structure as drawn. Read-outs that look alike come from different tables or passages of the source.

In data set [1] the test system is L. infantum and L. donovani. In words: Hamster models of infection (summary statement). Conditions: in vivo efficacy in hamster models of infection. An excerpt:
Female golden hamsters were randomly allocated to experimental groups of six animals each, based on body weight. At the start of the experiment (Day 0), each animal was infected with L. infantum or L. donovani inoculum, delivered by intracardial injection. Six hamsters were assigned to the vehicle-treated, infected control group. Six hamsters were assigned per group (1 group/compound) for the evaluation of compound and miltefosine. At Day 21 postinfection (21 dpi), all animals in each group were dosed orally for five (or ten) consecutive days (21–25 dpi): compound was dosed at 25–50 mg/kg b.i.d.; miltefosine was dosed at 40 mg/kg q.d. At Day 35 (10 days after the final oral dose), all animals were euthanized and autopsies were conducted. The study evaluated the following parameters. • 1. Adverse effects: all animals were observed daily for the occurrence/presence of adverse effects. • 2. […] Parasite burden: amastigote burdens in each target organ (liver, spleen, and bone marrow) were determined at Day 35. […] Impression smears were stained with Giemsa for microscopic examination of the total amastigote burden, defined as the mean number of amastigotes per cell multiplied by the number of cells counted (minimum 500 nuclei); the results were expressed as a percentage reduction in amastigote burden compared to vehicle-treated, infected control animals.

For data set [2], the target named is CYP1A2 (Homo sapiens, UniProt P05177). In words: CYP inhibition, CYP1A2. The format is in vitro ADME. Conditions: human liver microsomes. Here is the method: (§1) The study was conducted by WuXi AppTec, Co., China, using the time-dependent (TDI) method. […] Following incubation with substrates (phenacetin for 1A2, diclofenac for 2C9, S-(+) mephenytoin for 2C19, dextromethorphan for 2D6, and midazolam or testosterone for 3A4), reactions were stopped by adding ice-cold acetonitrile, the samples were analyzed for the formation of metabolites by LC-MS/MS, and the percentage of inhibition was determined.
Chain of CYP1A2 (P05177 whole entry): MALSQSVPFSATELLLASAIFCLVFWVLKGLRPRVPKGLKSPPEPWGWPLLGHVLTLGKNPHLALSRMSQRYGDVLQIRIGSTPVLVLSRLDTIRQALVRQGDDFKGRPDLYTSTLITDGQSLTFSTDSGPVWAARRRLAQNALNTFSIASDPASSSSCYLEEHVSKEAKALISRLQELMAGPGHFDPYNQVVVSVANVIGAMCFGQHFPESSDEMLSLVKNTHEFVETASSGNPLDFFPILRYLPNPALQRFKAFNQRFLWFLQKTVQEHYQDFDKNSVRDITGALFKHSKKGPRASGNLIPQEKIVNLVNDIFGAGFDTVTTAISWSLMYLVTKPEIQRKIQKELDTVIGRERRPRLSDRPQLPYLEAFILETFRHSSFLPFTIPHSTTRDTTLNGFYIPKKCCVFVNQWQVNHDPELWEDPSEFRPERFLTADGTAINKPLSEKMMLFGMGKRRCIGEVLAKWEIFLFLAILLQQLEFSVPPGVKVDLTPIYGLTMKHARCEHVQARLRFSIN
On the technique in general: Liver microsomes are vesicles of endoplasmic reticulum, rich in cytochrome P450 enzymes.

Data set [3] has as its target CYP2C9 (Homo sapiens, UniProt P11712). In words: CYP inhibition, CYP2C9. The format is in vitro ADME. Conditions: human liver microsomes. As for the experimental part:
as §1

In data set [4] the target is CYP3A4 (Homo sapiens, UniProt P08684). Briefly: CYP inhibition, CYP3A4. The format is in vitro ADME. The conditions noted are these: human liver microsomes. As for the experimental part: as §1
Chain of CYP3A4 (P08684 2-503 limits assumed): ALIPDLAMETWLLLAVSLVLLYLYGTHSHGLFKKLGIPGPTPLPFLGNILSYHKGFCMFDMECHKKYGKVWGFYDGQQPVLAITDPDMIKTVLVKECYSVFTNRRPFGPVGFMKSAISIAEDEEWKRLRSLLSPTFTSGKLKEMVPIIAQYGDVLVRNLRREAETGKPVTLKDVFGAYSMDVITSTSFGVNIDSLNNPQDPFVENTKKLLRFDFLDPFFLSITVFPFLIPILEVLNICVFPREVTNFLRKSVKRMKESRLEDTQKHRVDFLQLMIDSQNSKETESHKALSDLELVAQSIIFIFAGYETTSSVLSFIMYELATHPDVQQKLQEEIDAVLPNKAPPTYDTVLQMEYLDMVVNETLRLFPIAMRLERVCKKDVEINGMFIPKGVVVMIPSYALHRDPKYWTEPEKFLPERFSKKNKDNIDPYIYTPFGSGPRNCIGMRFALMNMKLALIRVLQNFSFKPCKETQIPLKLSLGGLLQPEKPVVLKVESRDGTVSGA
Data set [5] concerns the target T1, hERG potassium channels (Homo sapiens, UniProt Q12809).
T1 construct: expressed in transfected cells; host or cells: Chinese hamster ovary (CHO) cells
Briefly: hERG inhibition, automated patch-clamp. The format is cell-based. The conditions noted are these: at 30 μM. As for the experimental part:
An automated patch-clamp method (QPatch HTX) was used by WuXi AppTec, China. Chinese hamster ovary cells expressing hERG potassium channels were incubated at room temperature with test compounds (0.12, 0.37, 1.11, 3.33, 10, and 30 μM, in triplicate) or amitriptyline as a positive control.
(In general: Block of hERG is tested as a sign of cardiac risk.)

Data set [6] has as its system panel of 88 targets (Cerep panel). Briefly: Off-target panel (Eurofins Cerep panel). Conditions: at a concentration of 10 μM.
Data set [7] can be described thus: Plasma-protein binding, mouse. The format is in vitro ADME. Conditions: Balb/c, pH 7.4. Here is the method:
(§2) Tests were conducted by WuXi AppTec, Co., China, using the equilibrium dialysis method and a 96-well plate format. The test compound (at 2 μM, in triplicate) in solution in plasma (Balb/c mouse, golden (Syrian) hamster, Sprague-Dawley rat, Beagle dog or human) was dialyzed against 100 mM phosphate-buffered saline (pH 7.4) on a rotating plate incubated for 6 h at 37 °C. Following the precipitation of protein with acetonitrile or acetonitrile/methanol containing both 1% phosphoric acid, the amount of compound present in each compartment was quantified by LC-MS/MS.

The nature of data set [8]: Plasma-protein binding, rat. The format is in vitro ADME. Conditions: Sprague-Dawley, pH 7.4. As for the experimental part:
as §2

Data set [9] is described as follows: Plasma-protein binding, hamster. The conditions noted are these: golden (Syrian), pH 7.4. The format is in vitro ADME. Here is the method:
as §2

Data set [10] is described as follows: Thermodynamic solubility. The format is physicochemical. As for the experimental part: The thermodynamic solubility was measured by WuXi AppTec, China. Aliquots of the compound DMSO stock (10 mM) were transferred to fasted state simulated intestinal fluid (FaSSIF) buffer (pH 6.5) or fed state simulated intestinal fluid (FeSSIF) buffer (pH 5.0), and the mixtures were shaken for 24 h at room temperature. Following sampling by a Whatman filter device, the compound concentrations were determined by UV spectroscopy.

For data set [11], the system named is MDR1. In words: in vitro. Conditions: dog. The format is in vitro ADME. As for the experimental part:
Bidirectional permeability tests with MDCK-MDR1 cells were performed by WuXi AppTec, Co., China. The test compound, at a concentration of 2 μM in 0.4% DMSO/HBSS buffer with 10 mM HEPES pH 7.4, was applied to the apical or basolateral side of the cell monolayer. Permeation of the compound from A to B direction or B to A direction was determined in triplicate over a 150 min incubation at 37 °C and 5% CO2 (95% humidity). Test and reference compounds were quantified by LC-MS/MS analysis based on the peak area ratio of analyte/internal standard.

A short description of data set [12]: Hepatocyte stability, rat. The format is in vitro ADME. The conditions noted are these: Sprague-Dawley, cryopreserved rat hepatocytes. Here is the method: Tests were performed by WuXi AppTec, China. Following a viability check of cryopreserved hepatocytes from Sprague-Dawley rat, Beagle dog, or human, test compounds (at 1 μM) or positive controls 7-ethoxycoumarin and 7-hydroxycoumarin (at 3 μM) were incubated at 37 °C, 5% CO2 with hepatocytes in Williams’ Medium E. Following incubation of 15, 30, 60, 90, 120, 180, and 240 min, reactions were stopped by the addition of acetonitrile, the samples were centrifuged, and LC-MS/MS analysis was conducted using tolbutamide as an internal standard.

Data set [13] is described as follows: Human PK and dose prediction by allometric scaling.
Data set [14] has as its system trypanosomes overexpressing the wild-type version of CPSF3. Briefly: Drug sensitivity, T. brucei overexpressing CPSF3. The format is cell-based. Here is the method: The clonal L. donovani cell line LdBOB (derived from MHOM/SD/62/1S-CL2D) was grown as promastigotes at 28 °C, as described previously. Bloodstream form T. brucei MiTat 1.2 clone 221a and its derived subline, 2T1, were cultured at 37 °C in the presence of 5% CO2 in HMI9-T medium, as described previously. T. brucei cell lines overexpressing CPSF3 and overexpressing a mutated version of CPSF3 (Asn232His) were generated as part of a previous study and cultured as described.[19]
Drug sensitivity assays with wild-type and transgenic T. brucei and L. donovani cell lines were carried out as previously described.[31],[32]

Where [15] appears, read: allometric scaling from rat and dog PK data.

Chain of CYP2C9 (P11712 whole entry): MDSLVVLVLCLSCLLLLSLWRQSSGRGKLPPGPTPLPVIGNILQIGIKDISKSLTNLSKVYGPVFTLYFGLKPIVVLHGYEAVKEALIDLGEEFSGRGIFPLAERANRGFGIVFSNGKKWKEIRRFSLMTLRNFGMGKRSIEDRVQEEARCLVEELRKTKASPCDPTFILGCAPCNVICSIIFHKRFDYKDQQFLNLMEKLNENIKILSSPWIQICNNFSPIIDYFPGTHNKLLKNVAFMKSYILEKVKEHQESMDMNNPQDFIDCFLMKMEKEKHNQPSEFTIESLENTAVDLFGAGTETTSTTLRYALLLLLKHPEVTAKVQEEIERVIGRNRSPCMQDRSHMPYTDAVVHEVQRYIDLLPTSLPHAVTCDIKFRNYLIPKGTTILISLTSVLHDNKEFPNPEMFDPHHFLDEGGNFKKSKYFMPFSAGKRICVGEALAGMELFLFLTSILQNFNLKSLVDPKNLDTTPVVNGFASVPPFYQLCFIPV
T1 sequence (Q12809 whole entry): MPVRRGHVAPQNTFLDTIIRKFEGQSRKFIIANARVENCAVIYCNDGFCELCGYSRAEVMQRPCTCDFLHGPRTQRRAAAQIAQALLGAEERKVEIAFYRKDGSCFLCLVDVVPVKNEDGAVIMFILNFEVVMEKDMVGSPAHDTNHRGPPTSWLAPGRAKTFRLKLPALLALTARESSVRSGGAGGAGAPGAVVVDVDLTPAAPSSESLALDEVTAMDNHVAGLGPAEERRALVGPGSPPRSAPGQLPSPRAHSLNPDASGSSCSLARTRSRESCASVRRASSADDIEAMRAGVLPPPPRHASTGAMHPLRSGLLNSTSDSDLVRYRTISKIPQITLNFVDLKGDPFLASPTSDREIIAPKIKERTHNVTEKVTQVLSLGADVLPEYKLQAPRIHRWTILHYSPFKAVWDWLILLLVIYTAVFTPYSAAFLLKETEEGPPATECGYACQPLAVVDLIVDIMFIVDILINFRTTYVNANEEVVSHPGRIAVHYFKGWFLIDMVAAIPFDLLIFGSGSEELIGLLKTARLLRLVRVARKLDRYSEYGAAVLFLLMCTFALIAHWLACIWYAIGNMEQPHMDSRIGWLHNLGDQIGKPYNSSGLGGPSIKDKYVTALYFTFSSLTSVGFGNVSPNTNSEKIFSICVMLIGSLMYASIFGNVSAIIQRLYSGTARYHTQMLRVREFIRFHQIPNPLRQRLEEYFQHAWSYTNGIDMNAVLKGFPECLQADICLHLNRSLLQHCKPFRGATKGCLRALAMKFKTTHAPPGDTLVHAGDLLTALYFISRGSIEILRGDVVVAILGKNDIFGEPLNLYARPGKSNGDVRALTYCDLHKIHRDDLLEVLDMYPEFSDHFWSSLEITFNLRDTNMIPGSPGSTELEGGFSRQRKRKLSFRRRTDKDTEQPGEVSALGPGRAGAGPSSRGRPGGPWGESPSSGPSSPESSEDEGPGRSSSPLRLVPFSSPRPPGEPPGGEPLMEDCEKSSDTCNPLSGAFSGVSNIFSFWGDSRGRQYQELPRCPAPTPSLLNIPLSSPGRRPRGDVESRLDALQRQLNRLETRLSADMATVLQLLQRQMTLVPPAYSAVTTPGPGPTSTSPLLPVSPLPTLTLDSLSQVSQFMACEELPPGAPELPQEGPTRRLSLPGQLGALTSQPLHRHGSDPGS

For the compound `Cc1c(C(=O)Nc2ccc3c(c2)B(O)OC3)nnn1-c1ccccn1` [Compound 23, N-(1-Hydroxy-1,3-dihydrobenzo[c][1,2]oxaborol-6-yl)-5-methyl-1-(pyridin-2-yl)-1H-1,2,3-triazole-4-carboxamide], the “reduction in parasite burden” value in data set [1] is recorded as above 98%. The IC50 in data set [2], in [3] and in data set [4] was above 50 µM in each case. The same compound showed a hERG inhibition in [5] below 20%. For the same compound, the “activity in panel of 88 targets” value in data set [6] was at most 50%. For the same compound, the fraction unbound at 6 h, 2 µM in data set [7] was 0.07; in data set [8], 0.08; in data set [9], 0.12. The solubility at 24 h was 5.4 µg/mL (≈ 16.1 µM) in data set [10] (FaSSIF buffer pH 6.5, read-out: FaSSIF solubility) and 6.3 µg/mL (≈ 18.8 µM) in [10] (FeSSIF buffer pH 5.0, read-out: FeSSIF solubility). For the same compound, the Papp A→B at 150 min, 2 μM in data set [11] (MDCK-MDR1, pH 7.4) stood at 17.1 ×10⁻⁶ cm/s. In data set [11] (MDCK-MDR1, pH 7.4), this compound yielded a Papp B→A at 150 min, 2 μM of 11.6 ×10⁻⁶ cm/s. Also, the efflux ratio at 150 min, 2 μM in data set [11] (MDCK-MDR1, pH 7.4) was found to be 0.68. For the same compound, in data set [11] (MDCK-MDR1, pH 7.4), the efflux ratio at 2.5 h, 2 µM worked out at 0.7. The recovery at 150 min, 2 μM in data set [11] (MDCK-MDR1, pH 7.4, Mean total recovery A to B) turned out to be 71.1%; in [11] (MDCK-MDR1, pH 7.4, Mean total recovery B to A) it was 87.8%. The compound also yielded a hepatocyte CLint at 1 μM in [12] of 0.7 µL/min/1e6 cells. In data set [13] (BID dosing in humans), the “predicted efficacious human dose” value was 3 to 20 mg/kg. Also, the “predicted bioavailability in humans” value in data set [13] (setting [15]) was 40–90%. The “predicted clearance in humans” value in [13] (setting [15]) was 1 to 4 mL/min/kg. A half-maximal effect in data set [14] (Trypanosoma brucei) (EC50) was put at 0.172 ± 0.003 µM. The “fold less sensitive compared to wild-type” value in data set [14] (trypanosomes overexpressing wild-type CPSF3) is 2.9 fold.

By IC50 is commonly meant the point on the concentration scale where inhibition reaches its midpoint. As a reminder, the fraction unbound is the share of the substance not bound to proteins or other matrix. Usually solubility stands for the dissolved amount per volume that the medium holds. The Papp A→B is how fast a substance crosses the layer from the apical side. The Papp B→A is how fast a substance crosses the layer from the basolateral side. Broadly, the efflux ratio is the permeability from basolateral to apical divided by that in the opposite direction, in the common usage. A word on the hepatocyte CLint: it is a measure of how fast metabolising enzymes remove a compound, apart from limits set by blood flow. Broadly, the EC50 is the concentration that produces a half-maximal response. Low values mean higher potency in that assay, high ones lower potency in that assay.
